ChEMBL document CHEMBL5727827, “PD-1/PD-L1 inhibitors” (2020)

Molecular target: Programmed cell death protein 1/Programmed cell death 1 ligand 1 (Homo sapiens, UniProt Q15116+Q9NZQ7)
Test: Binding of the protein pairs is measured using a bead based Amplified Luminescent Proximity Homogeneous Assay (ALPHA) platform. Binding of each protein pair results in proximity of the donor and acceptor beads which leads to an increase in ALPHA signal. […] Assays are performed in 25 mM Hepes (pH 7.4), 150 mM NaCl, 3.4 mM EDTA, 0.005% Tween 20, and 0.01% BSA. […] After an assay reaction time of 60 minutes at 25° C., binding was measured with addition of 20 μg/mL ALPHA assay acceptor beads (anti-His coated) and 20 µg/mL ALPHA assay donor beads (streptavidin coated). IC50 values were calculated from the fit of the dose-response curves to a four-parameter equation.
Assay type: protein-complex assay

Chain of Programmed cell death protein 1/Programmed cell death 1 ligand 1 (Q15116 whole entry): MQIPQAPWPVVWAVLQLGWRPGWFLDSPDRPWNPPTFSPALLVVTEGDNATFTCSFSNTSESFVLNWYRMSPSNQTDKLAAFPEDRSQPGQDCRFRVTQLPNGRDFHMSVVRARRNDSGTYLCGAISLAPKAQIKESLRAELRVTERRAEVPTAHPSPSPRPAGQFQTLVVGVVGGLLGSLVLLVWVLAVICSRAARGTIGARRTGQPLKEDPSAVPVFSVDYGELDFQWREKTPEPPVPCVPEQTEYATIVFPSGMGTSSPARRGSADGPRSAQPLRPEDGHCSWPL
Chain of Programmed cell death protein 1/Programmed cell death 1 ligand 1 (Q9NZQ7 whole entry): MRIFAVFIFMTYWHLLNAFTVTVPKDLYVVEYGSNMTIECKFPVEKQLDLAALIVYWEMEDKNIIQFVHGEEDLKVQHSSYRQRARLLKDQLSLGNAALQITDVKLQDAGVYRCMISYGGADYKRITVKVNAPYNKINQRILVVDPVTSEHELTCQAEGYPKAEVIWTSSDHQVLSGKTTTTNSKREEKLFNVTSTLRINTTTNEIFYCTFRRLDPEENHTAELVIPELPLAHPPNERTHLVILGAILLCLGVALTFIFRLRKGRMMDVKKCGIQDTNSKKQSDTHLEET

Q: COc1nc(-c2cccc(-c3cccc(-c4cnc(CN5CC(C(C)(C)O)C5)c(OC)n4)c3Cl)c2Cl)cnc1CN was tested. Which IC50 did it give?
A: 0.346 nM
